Data on 1 compound can be found in ChEMBL document CHEMBL4610129, “Discovery of Novel Selective and Orally Bioavailable Phosphodiesterase-1 Inhibitors for the Efficient Treatment of Idiopathic Pulmonary Fibrosis” (J Med Chem, 2020).

Molecules are shown by their SMILES. pIC50: −log10 of the molar value. Activity calls are given as the source filed them. Bounds are passed on as bounds.

The species named for data set [1] is Homo sapiens. Kind of data set: Anti-pulmonary fibrosis activity in human HLF assessed as reduction in TGF-beta-induced myofibroblast differentiation by measuring reduction in fibronectin protein expression incubated for 48 hrs by Western blot analysis. Type of data set: functional. Background: Immunoblotting shows a protein as a band on a membrane.
The target of data set [2] is cGMP-dependent 3',5'-cyclic phosphodiesterase (Homo sapiens, UniProt O00408). The data set can be described thus: Inhibition of PDE2A (580 to 919 residues) (unknown origin) using [3H]-cGMP substrate incubated for 15 mins by liquid scintillation counting method relative to control.
Data set [3] in a line: Acute toxicity in mouse. The following applies: in vivo. The class given is organism-based.
Another data set concerns the target Cytochrome P450 3A4 (Homo sapiens, UniProt P08684). The data set can be described thus: Inhibition of human CYP3A4 using midazolam as substrate. The class given is ADME.
In data set [4] the test system is Rattus norvegicus. Kind of data set: Anti-pulmonary fibrosis activity in Sprague-Dawley rat model of BLM-induced idiopathic pulmonary fibrosis assessed as inhibition of alpha-SMA protein expression at 10 mg/kg, po dosed daily for 28 days by Western blot analysis. Type of data set: functional, organism-based.
For data set [5], the species on record is Homo sapiens. Kind of data set: Anti-pulmonary fibrosis activity in human HLF assessed as reduction in TGF-beta-induced myofibroblast differentiation by measuring reduction in alpha-SMA protein expression incubated for 48 hrs by immunofluorescence staining analysis. Type of data set: functional.
Data set [6] deals with Cone cGMP-specific 3',5'-cyclic phosphodiesterase subunit alpha' (Homo sapiens, UniProt P51160). The data set can be described thus: Inhibition of PDE6C (1 to 858 residues) (unknown origin) using [3H]-cGMP substrate incubated for 15 mins by liquid scintillation counting method relative to control.
The test system of data set [7] is Rattus norvegicus. The data set can be described thus: Anti-pulmonary fibrosis activity in Sprague-Dawley rat model of BLM-induced idiopathic pulmonary fibrosis assessed as reduction in end-inspiratory pause at 10 mg/kg, po dosed daily for 28 days by mka noninvasive pulmonary monitoring system based method. Type of data set: functional, organism-based.
Data set [8] deals with Rattus norvegicus. The data set can be described thus: Anti-pulmonary fibrosis activity in Sprague-Dawley rat model of BLM-induced idiopathic pulmonary fibrosis assessed as reduction in peak inspiratory flow at 10 mg/kg, po dosed daily for 28 days by mka noninvasive pulmonary monitoring system based method. The class given is functional, organism-based.
Data set [9] relates to Rattus norvegicus. Kind of data set: Anti-pulmonary fibrosis activity in Sprague-Dawley rat model of BLM-induced idiopathic pulmonary fibrosis assessed as inhibition of alpha-SMA protein expression at 10 mg/kg, po dosed daily for 28 days by immunofluorescence staining analysis. The class given is functional, organism-based.
Data set [10] can be described thus: Half life in rat liver microsomes. The class given is ADME, Microsome. In general terms: Microsomes from liver hold many membrane-bound enzymes, among them those of drug oxidation.

Chain of Cytochrome P450 3A4 (P08684 whole entry): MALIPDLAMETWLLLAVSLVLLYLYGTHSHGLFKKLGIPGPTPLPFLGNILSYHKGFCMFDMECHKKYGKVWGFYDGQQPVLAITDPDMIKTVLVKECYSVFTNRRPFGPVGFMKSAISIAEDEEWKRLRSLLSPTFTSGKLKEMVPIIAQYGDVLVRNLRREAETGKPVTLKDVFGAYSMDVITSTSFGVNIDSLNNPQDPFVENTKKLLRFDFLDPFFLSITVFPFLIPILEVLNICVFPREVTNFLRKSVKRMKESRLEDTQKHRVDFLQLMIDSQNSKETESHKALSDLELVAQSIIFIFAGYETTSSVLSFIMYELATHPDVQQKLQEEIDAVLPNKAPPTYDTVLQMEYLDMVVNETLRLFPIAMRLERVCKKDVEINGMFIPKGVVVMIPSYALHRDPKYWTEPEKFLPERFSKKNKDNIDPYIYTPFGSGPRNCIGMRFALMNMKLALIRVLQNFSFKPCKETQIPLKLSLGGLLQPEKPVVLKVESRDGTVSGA
Chain of cGMP-dependent 3',5'-cyclic phosphodiesterase (O00408 whole entry, the tested form may be a part): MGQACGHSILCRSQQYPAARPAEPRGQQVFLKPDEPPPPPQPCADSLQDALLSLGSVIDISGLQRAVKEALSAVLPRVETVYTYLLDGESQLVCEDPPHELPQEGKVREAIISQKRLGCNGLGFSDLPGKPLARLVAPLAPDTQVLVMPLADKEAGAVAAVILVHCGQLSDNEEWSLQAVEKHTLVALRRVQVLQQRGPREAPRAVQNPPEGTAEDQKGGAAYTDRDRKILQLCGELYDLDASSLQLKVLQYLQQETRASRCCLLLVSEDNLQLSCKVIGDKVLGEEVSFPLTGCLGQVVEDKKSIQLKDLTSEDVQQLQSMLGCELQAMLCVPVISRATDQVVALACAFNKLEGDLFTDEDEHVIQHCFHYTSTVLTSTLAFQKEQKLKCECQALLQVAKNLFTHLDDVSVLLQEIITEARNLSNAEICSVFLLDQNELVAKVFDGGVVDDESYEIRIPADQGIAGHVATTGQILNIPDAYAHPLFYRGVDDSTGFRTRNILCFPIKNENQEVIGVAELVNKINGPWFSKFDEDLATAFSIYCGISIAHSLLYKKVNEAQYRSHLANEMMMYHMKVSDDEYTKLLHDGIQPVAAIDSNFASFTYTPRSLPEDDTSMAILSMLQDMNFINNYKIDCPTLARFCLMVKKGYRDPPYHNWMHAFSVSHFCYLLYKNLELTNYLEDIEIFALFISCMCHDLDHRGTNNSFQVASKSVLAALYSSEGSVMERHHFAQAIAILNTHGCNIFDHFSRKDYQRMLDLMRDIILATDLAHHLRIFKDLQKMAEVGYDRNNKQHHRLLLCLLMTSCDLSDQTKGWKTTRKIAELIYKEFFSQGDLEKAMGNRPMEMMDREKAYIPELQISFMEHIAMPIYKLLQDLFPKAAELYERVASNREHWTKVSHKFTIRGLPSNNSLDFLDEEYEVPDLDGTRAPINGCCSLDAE
Chain of Cone cGMP-specific 3',5'-cyclic phosphodiesterase subunit alpha' (P51160 whole entry, the tested form may be a part): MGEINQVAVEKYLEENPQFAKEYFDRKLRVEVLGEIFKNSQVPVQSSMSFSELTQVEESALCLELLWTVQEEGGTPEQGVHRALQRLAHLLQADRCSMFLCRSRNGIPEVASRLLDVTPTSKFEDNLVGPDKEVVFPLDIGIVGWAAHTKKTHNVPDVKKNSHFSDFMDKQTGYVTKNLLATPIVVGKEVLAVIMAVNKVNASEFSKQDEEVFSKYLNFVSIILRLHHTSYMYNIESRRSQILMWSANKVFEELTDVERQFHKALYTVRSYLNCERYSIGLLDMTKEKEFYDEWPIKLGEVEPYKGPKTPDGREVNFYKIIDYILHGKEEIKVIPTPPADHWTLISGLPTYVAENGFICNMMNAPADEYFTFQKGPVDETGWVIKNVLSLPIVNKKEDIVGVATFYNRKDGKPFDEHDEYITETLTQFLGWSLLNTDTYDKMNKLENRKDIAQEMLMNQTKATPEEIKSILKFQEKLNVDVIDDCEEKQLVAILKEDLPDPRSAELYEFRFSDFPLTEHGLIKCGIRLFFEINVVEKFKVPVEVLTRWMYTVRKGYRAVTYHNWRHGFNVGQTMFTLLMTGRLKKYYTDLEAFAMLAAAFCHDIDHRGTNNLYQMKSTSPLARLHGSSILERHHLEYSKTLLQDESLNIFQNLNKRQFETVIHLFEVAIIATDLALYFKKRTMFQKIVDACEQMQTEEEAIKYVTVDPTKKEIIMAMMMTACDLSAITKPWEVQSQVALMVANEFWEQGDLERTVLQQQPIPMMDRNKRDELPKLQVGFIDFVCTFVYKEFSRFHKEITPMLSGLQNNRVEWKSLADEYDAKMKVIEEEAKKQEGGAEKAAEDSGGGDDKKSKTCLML

For orientation: pIC50 means −log10 of the IC50, conventionally taken in molar units. Read a high pIC50 as a small IC50. By half-life is commonly meant the time needed for the level to fall by half in the phase considered. Higher therefore signals slow decline. For `C[C@@H](Nc1nc2c(cnn2C(C)(C)C)c(=O)n1Cc1ccc(F)cc1)c1ccc(Cl)cc1`, the Activity entry in the data set filed under Homo sapiens [1] and in the data set listed under Homo sapiens [5] was “Dose-dependent effect” throughout. For the same compound, the pIC50 in data set [2] was below 5.00; at Cytochrome P450 3A4, below 4.60; in data set [6], below 5.00. Further, the MTD in data set [3] was above 1500 mg/kg. The outcome with Rattus norvegicus [4], with Rattus norvegicus [7], with Rattus norvegicus [8] and in the data set on Rattus norvegicus [9] was Active. Also, the half-life in [10] lay within 15.8 to 16 min.
